Laboratory results from patent publication US7135466B2 (Kirin Beer Kabushiki Kaisha, priority 1999, dated 2006).
Where two headings read alike, the source gives them in different places.

Molecular target: T1, PDGF-Ra (Homo sapiens, UniProt P16234)
T1 construct: host or cells: G-292 human osteosarcoma cells
Test: Inhibitory activity against PDGF-Ra phosphorylation by PDGF-AA stimulation using G292
Format: cell-based
Conditions: for IC50: > means inhibition at indicated concentration not more than 50%, < and << not less than 50%, read-out: PDGF (E) IC50; for inhibition at 0.1 µM: G292, read-out: PDGF (E) inhibition (%) at 100 nM
Method: Measurement of Inhibitory Activity Against PDGF-Ra Phosphorylation by PDGF-AA Stimulation Using G292
G-292 human osteosarcoma cells (Dainippon Pharmaceutical Co. Ltd.) were cultured in a DMEM medium (Dainippon Pharmaceutical Co. Ltd.) containing 10% FBS within an incubator containing 5% carbon dioxide until 80% confluent, and the cells were planted at 3×10^4 cells per well in 96-well flat-bottom plates in the same medium containing 0.1% FBS. After cultivation at 37° C. overnight, a solution of a test compound in dimethyl sulfoxide was added to each well, and a reaction was allowed to proceed at 37° C. for one hr.
After the reaction of the test compound, PDGF-AA (Upstate) was added to 50 ng/ml, and the cells were stimulated at 37° C. for 5 min. Thereafter, the cells were solubilized and shaken at room temperature for 20 min.
This solubilized cell solution was transferred to a 96-well plate coated with aniti-phosphotyrosine antibody PY-20, and a reaction was allowed to proceed at 4° C. overnight. Anti-PDGF-Ra (c-20) (Santa Cruz) was added as a primary antibody, and a reaction was allowed to proceed for one hr. GAR (Anti-rabbit Ig, horseradish peroxidase, Amersham) was then added as a secondary antibody, and a reaction was allowed to proceed for one hr. Color development was carried out using a color development kit for peroxidase (Sumitomo Bakelite Co., Ltd.), and the absorbance was measured at 450 nm.

[1] = figure in parentheses in >100( ), at 100 nM
[2] = figure within parentheses in >100( ), at 100 nM

T1 sequence (P16234 24-1089): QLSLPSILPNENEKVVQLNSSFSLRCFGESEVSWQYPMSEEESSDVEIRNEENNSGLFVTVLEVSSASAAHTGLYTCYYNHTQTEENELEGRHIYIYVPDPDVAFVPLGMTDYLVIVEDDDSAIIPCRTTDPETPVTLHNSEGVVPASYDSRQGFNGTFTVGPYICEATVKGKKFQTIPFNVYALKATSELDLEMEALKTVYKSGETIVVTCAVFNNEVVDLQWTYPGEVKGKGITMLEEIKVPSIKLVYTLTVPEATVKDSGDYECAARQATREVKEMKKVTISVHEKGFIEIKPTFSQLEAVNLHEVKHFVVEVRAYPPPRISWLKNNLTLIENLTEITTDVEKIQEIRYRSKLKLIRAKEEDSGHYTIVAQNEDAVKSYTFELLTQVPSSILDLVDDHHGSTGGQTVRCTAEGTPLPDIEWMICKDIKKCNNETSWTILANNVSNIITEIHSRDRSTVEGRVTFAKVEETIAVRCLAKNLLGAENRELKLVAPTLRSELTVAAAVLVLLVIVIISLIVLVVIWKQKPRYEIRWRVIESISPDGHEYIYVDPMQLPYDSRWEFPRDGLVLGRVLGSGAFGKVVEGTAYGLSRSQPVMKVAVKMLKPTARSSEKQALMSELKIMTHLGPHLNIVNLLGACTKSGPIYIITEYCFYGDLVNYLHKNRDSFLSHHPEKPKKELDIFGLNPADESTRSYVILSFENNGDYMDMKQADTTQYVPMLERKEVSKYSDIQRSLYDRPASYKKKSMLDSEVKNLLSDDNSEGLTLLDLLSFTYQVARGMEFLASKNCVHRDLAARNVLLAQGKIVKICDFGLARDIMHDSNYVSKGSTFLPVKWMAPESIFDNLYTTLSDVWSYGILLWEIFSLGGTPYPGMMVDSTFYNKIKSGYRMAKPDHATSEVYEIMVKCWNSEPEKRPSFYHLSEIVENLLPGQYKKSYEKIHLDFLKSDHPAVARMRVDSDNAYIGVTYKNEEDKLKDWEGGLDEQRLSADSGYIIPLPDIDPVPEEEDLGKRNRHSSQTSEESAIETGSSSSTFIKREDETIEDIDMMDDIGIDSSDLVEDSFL

IC50	Molecule	other results
0.039 µM	CCN(CC)CCNC(=O)Nc1ccc(Oc2ccnc3cc(OC)c(OC)cc23)cc1C [Example 649, N-[2-(Diethylamino)ethyl]-N′-{4-[(6,7-dimethoxy-4-quinolyl)oxy]-2-methylphenyl}urea]	
> 0.1 µM	COc1ccc(C(=O)NC(=S)Nc2ccc(Oc3ccnc4cc(OC)c(OC)cc34)cc2Cl)c(OC)c1 [Example 1176, N-{2-Chloro-4-[(6,7-dimethoxy-4-quinolyl)oxy]phenyl}-N′-(2,4-dimethoxybenzoyl)thiourea]	
0.048 µM	COc1cc2nccc(Oc3ccc(NC(=S)NC(=O)c4ccc(C)cc4C)cc3Cl)c2cc1OC [Example 1016, N-{3-Chloro-4-[(6,7-dimethoxy-4-quinolyl)oxy]phenyl}-N′-(2,4-dimethylbenzoyl)thiourea]	
0.078 µM	CCOC(=O)CCC(=O)NC(=S)Nc1ccc(Oc2ncnc3cc(OC)c(OC)cc23)cc1 [Example 1178, Ethyl 4-[({4-[(6,7-dimethoxy-4-quinazolinyl)oxy]anilino}carbothioyl)amino]-4-oxobutanoate]	
> 0.1 µM	COc1cc2nccc(Oc3ccc(NC(=S)NC(=O)c4ccc(C5CCCCC5)cc4)cc3Cl)c2cc1OC [Example 1127, N-{3-Chloro-4-[(6,7-dimethoxy-4-quinolyl)oxy]phenyl}-N′-(4-cyclohexylbenzoyl)thiourea]	inhibition at 0.1 µM [1]: 8%
> 0.1 µM	CCN(C(=S)NC(=O)C1CC1c1ccccc1)c1ccc(Oc2ccnc3cc(OC)c(OC)cc23)cc1 (centres unmarked) [Example 1143, N-{4-[(6,7-Dimethoxy-4-quinolyl)oxy]phenyl}-N-ethyl-N′-[(2-phenylcyclopropyl)carbonyl]thiourea]	inhibition at 0.1 µM [1]: 32%
	COc1cc2nccc(Oc3ccc(NC(=O)OCCN(C)C)c(C)c3C)c2cc1OC [Example 189, 2-(Dimethylamino)ethyl N-{4-[(6,7-dimethoxy-4-quinolyl)oxy]-2,3-dimethylphenyl}carbamate]	IC50 (Pharmacological Test Example 1): 0.057 µM
0.015 µM	COc1cc2nccc(Oc3ccc(NC(=S)NC(=O)Cc4ccccc4[N+](=O)[O-])cc3)c2cc1OC [Example 735, N-{4-[(6,7-Dimethoxy-4-quinolyl)oxy]phenyl}-N′-[2-(2-nitrophenyl)acetyl]thiourea]	
0.034 µM	COc1cc2ncnc(Oc3ccc(NC(=S)NC(=O)Cc4cccs4)cc3)c2cc1OC [Example 1172, N-{4-[(6,7-Dimethoxy-4-quinazolinyl)oxy]phenyl}-N′-[2-(2-thienyl)acetyl]thiourea]	
	COc1cc2nccc(Oc3ccc(NC(=O)OC(c4ccccc4)C(C)C)cc3)c2cc1OC (centres unmarked) [Example 195, 2-Methyl-1-phenylpropyl N-{4-[(6,7-dimethoxy-4-quinolyl)oxy]phenyl}carbamate]	IC50 (Pharmacological Test Example 1): 0.066 µM
	COc1cc2nccc(Oc3cc(C)c(NC(=O)OCCOc4ccccc4F)cc3C)c2cc1OC [Example 205, 2-(2-Fluorophenoxy)ethyl N-{4-[(6,7-dimethoxy-4-quinolyl)oxy]-2,5-dimethylphenyl}carbamate]	IC50 (Pharmacological Test Example 1): 0.078 µM
> 0.1 µM	COc1cc2nccc(Oc3ccc(NC(=S)NC(=O)c4cc(C)cc(C)c4)cc3)c2cc1OC [Example 1129, N-{4-[(6,7-Dimethoxy-4-quinolyl)oxy]phenyl}-N′-(3 5-dimethylbenzoyl)thiourea]	inhibition at 0.1 µM [1]: 48%
0.037 µM	COc1ccc(C(=O)NC(=S)Nc2ccc(Oc3ncnc4cc(OC)c(OC)cc34)cc2)c(OC)c1 [Example 1175, N-(2,4-Dimethoxybenzoyl)-N′-{4-[(6,7-dimethoxy-4-quinazolinyl)oxy]phenyl}thiourea]	
0.077 µM	COc1cc2nccc(Oc3ccc(NC(=O)OC(C#N)c4ccccc4)c(C)c3C)c2cc1OC (centres unmarked) [Example 455, Cyano(phenyl)methyl N-{4-[(6,7-dimethoxy-4-quinolyl)oxy]-2,3-dimethylphenyl}carbamate]	
0.052 µM	COc1cc2nccc(Oc3ccc(NC(=S)NC(=O)CCCCc4ccccc4)cc3)c2cc1OC [Example 727, N-{4-[(6,7-Dimethoxy-4-quinolyl)oxy]phenyl}-N′-(5-phenylpentanoyl)thiourea]	
	COc1cc2ncnc(Oc3ccc(NC(=O)OCC4CCC4)c(Cl)c3)c2cc1OC [Example 389, Cyclobutylmethyl N-{2-chloro-4-[(6,7-dimethoxy-4-quinazolinyl)oxy]phenyl}carbamate]	IC50 (Pharmacological Test Example 1): 0.051 µM
> 0.1 µM	COc1cc2nccc(Oc3ccc(NC(=S)NC(=O)c4cccc(F)c4)c(Cl)c3)c2cc1OC [Example 1163, N-{2-Chloro-4-[(6,7-dimethoxy-4-quinolyl)oxy]phenyl}-N′-(3-fluorobenzoyl)thiourea]	
0.019 µM	COc1cc2ncnc(Oc3ccc(NC(=O)NCCN(C(C)C)C(C)C)c([N+](=O)[O-])c3)c2cc1OC [Example 659, N-[2-(Diisopropylamino)ethyl]-N′-{4-[(6,7-dimethoxy-4-quinazolinyl)oxy]-2-nitrophenyl}urea]	
	COc1cc2nccc(Oc3cc(C)c(NC(=O)OCCOc4cccc(F)c4)cc3C)c2cc1OC [Example 209, 2-(3-Fluorophenoxy)ethyl N-{4-[(6,7-dimethoxy-4-quinolyl)oxy]-2,5-dimethylphenyl}carbamate]	IC50 (Pharmacological Test Example 1): > 0.1 µM
0.048 µM	COc1cc2nccc(Oc3ccc(NC(=S)NC(=O)CCc4ccccc4C)cc3Cl)c2cc1OC [Example 732, N-{3-Chloro-4-[(6,7-dimethoxy-4-quinolyl)oxy]phenyl}-N′-[3-(2-methylphenyl)propanoyl]thiourea]	
0.049 µM	CCC(Oc1ccccc1)C(=O)NC(=S)Nc1ccc(Oc2ccnc3cc(OC)c(OC)cc23)cc1 (centres unmarked) [Example 741, N-{4-[(6,7-Dimethoxy-4-quinolyl)oxy]phenyl}-N′-(2-phenoxybutanoyl)thiourea]	
0.036 µM	CCN(CC)C(C)CNC(=S)Nc1ccc(Oc2ccnc3cc(OC)c(OC)cc23)cc1 (centres unmarked) [Example 588, N-{4-[(6,7-Dimethoxy-4-quinolyl)oxy]phenyl}-N′-(2-diethylaminopropyl)thiourea]	
	COc1cc2nccc(Oc3ccc(NC(=O)OC(C)c4cccc(OC(F)(F)F)c4)cc3)c2cc1OC (centres unmarked) [Example 180, 1-[3-(Trifluoromethoxy)phenyl]ethyl N-{4-[(6,7-dimethoxy-4-quinolyl)oxy]phenol}carbamate]	IC50 (Pharmacological Test Example 1): 0.063 µM
0.039 µM	CCCC(CCC)OC(=O)N(C)c1ccc(Oc2ncnc3cc(OC)c(OC)cc23)cc1 [Example 493, 1-Propylbutyl N-{4-[(6,7-dimethoxy-4-quinazolinyl)oxy]phenyl}-N-methylcarbamate]	
	COc1cc2nccc(Oc3cc(C)c(NC(=O)OC(C)c4cccc(N(C)C)c4)cc3C)c2cc1OC (centres unmarked) [Example 201, 1-[3-(Dimethylamino)phenyl]ethyl N-{4-[(6,7-dimethoxy-4-quinolyl)oxy]-2,5-dimethylphenyl}-carbamate]	IC50 (Pharmacological Test Example 1): > 0.1 µM
0.046 µM	COc1cc2ncnc(Oc3ccc(NC(=S)NC(=O)c4cc(Cl)cc(Cl)c4)cc3)c2cc1OC [Example 1158, N-(3,5-Dichlorobenzoyl)-N′-{4-[(6,7-dimethoxy-4-quinazolinyl)oxy]phenyl}thiourea]	
	COc1cc2ncnc(Oc3ccc(NC(=O)OCC4CC4)c(Cl)c3)c2cc1OC [Example 384, Cyclopropylmethyl N-{2-chloro-4-[(6,7-dimethoxy-4-quinazolinyl)oxy]phenyl}carbamate]	inhibition at 0.1 µM [1]: 37%; IC50 (Pharmacological Test Example 1): > 0.1 µM
	COc1cc2ncnc(Oc3ccc(NC(=O)OCCCSc4ccc(C(C)(C)C)cc4)cc3)c2cc1OC [Example 75, 3-{[4-(Tert-butyl)phenyl]sulfanyl}propyl N-{4-[(6,7-dimethoxy-4-quinazolinyl)oxy]phenyl}carbamate]	IC50 (Pharmacological Test Example 1): 0.025 µM
> 0.1 µM	COc1cc2nccc(Oc3ccc(NC(=O)NC4CCN(CC5CCCCC5)C4)cc3)c2cc1OC (centres unmarked) [Example 585, N-[1-(Cyclohexylmethyl)tetrahydro-1H-3-pyrrolyl]-N′-{4-[(6,7-dimethoxy-4-quinolyl)oxy]phenyl}urea]	inhibition at 0.1 µM [2]: 32%
> 0.1 µM	COc1cc2nccc(Oc3cc(C)c(NC(=O)OC4CCN(C)CC4)cc3C)c2cc1OC [Example 467, 1-Methyl-4-piperidyl N-{4-[(6,7-dimethoxy-4-quinolyl)oxy]-2,5-dimethylphenyl}carbamate]	inhibition at 0.1 µM [2]: 8%

Molecule	IC50	other results
N-{4-[(6,7-Dimethoxy-4-quinazolinyl)oxy]phenyl}-N-ethyl-N′-(4-phenylbutanoyl)thiourea [Example 1140]	> 0.1 µM	PDGF (E) inhibition (%) at 100 nM [1]: 22%
COc1cc2nccc(Oc3ccc(NC(=O)Oc4cccc(C#N)c4)cc3)c2cc1OC [Example 457, 3-Cyanophenyl N-{4-[(6,7-dimethoxy-4-quinolyl)oxy]phenyl}carbamate]	> 0.1 µM	inhibition at 0.1 µM [2]: 29%
COc1cc2nccc(Oc3ccc(NC(=O)Oc4ccc(C#N)cc4)c(C)c3C)c2cc1OC [Example 461, 4-Cyanophenyl N-{4-[(6,7-dimethoxy-4-quinolyl)oxy]-2,3-dimethylphenyl}carbamate]	0.06 µM	
